Data on two compounds can be found in PMC6585716, “Protein catalyzed capture agents with tailored performance for in vitro and in vivo applications” (Biopolymers, 2017).

The nature of data set [1]: In vivo pharmacokinetics in mice (IV or IP, parallel sampling). The conditions noted are these: for AUC% Ext: male CD-1 mice.
The conditions of data set [2]: pH 7.4.
Another data set is described as follows: in vivo. The conditions noted are these: male, CD-1, mouse.
For data set [3] the following is noted: mouse, in vivo, ip, 5 mg/kg.
Setting [4] is: male, CD-1, mouse, plasma, ip, 5 mg/kg.
Where [5] appears, read: male, CD-1, mouse, plasma, iv, 1 mg/kg.

SMILES strings stand for the structures. Like-named read-outs stand apart in the source and are kept apart here. Starred links: 1 amine or outer side, 2 acyl side, 3 side chain; linkers in the order of their positions; H or OH if unused. Positions of bridges follow the written chain, without caps; N, C: chain ends. Non-standard residues stand in square brackets, D forms with d. Residues, ends and D or L forms follow the SMILES beside them. Triazole bridges read from a SMILES are 1,4-linked. Chains are numbered I, II in the order given. *: point of attachment. X1 = O=C(CCCC[C@@H]1SC[C@@H]2NC(=O)N[C@@H]21)NCCCOCCOCCOCCCN*; Lys(N3) = [N-]=[N+]=NCCCC[C@H](N)C(=O)O; Suc = O=C(CCC(=O)[*:2])[*:1]; dPra = C#CC[C@@H](N)C(=O)O

As to `CC[C@@H](C)[C@@H](NC(=O)[C@@H](CCC(=O)O)NC(=O)[C@@H](CCC(=O)O)NC(=O)[C@H](N)Cc1cn(CCCC[C@H](NC(=O)[C@@H](Cc2c[nH]c3ccccc23)NC(=O)[C@@H](CCC(=O)O)NC(=O)[C@@H](CCCNC(=N)N)NC(=O)[C@@H](Cc2ccccc2)NC(=O)[C@@H](CC(C)C)NC(=O)[C@H](N)Cc2cn(CCCC[C@H](NC(=O)[C@H](CC(C)C)NC(=O)[C@H](CCCNC(=N)N)NC(=O)[C@H](CCC(=O)O)NC(=O)[C@H](Cc3ccccc3)NC(=O)[C@@H]3CSSC[C@H](NC(=O)[C@H](CC(N)=O)NC(=O)[C@@H]4CCCN4C(=O)[C@H](CCC(=O)O)NC(=O)[C@@H](NC(=O)CCC(=O)NCCCOCCOCCOCCCNC(=O)CCCC[C@@H]4SC[C@@H]5NC(=O)N[C@@H]54)C(C)C)C(=O)N[C@@H](CC(=O)O)C(=O)N[C@@H]([C@@H](C)CC)C(=O)N[C@@H](Cc4c[nH]cn4)C(=O)N[C@@H](C(C)C)C(=O)N[C@@H](CCSC)C(=O)N[C@@H](Cc4c[nH]c5ccccc45)C(=O)N[C@@H](CCC(=O)O)C(=O)N[C@@H](Cc4c[nH]c5ccccc45)C(=O)N[C@@H](CCC(=O)O)C(=O)N3)C(=O)O)nn2)C(=O)O)nn1)C(=O)N[C@H](CCCNC(=N)N)C(=O)N[C@H](CC(=O)O)C(N)=O` [Tri‐LV] (I: {X1-Suc}-VEPNCDIHVMWEWECFERL[Lys(N3)]-OH / II: H-[dPra][dL][dF][dR][dE][dW][Lys(N3)]-OH / III: H-[dPra][dE][dE][dI][dR][dD]-NH2; disulfide I:5-I:15; triazole I:20-II:1, II:7-III:1), in data set [1] (IP, 5 mg/kg single dose, plasma), the “AUC% Ext” value was 2.04%. The “AUC% Ext” value in data set [1] (IV, 1 mg/kg single dose, plasma) was found to be 6.49%. Also, in data set [1] (setting [4]), the AUC(0-inf) was found to be 32200 ng·h/mL, the AUC(0-t) turned out to be 31500 ng·h/mL, the highest level (Cmax) was 19800 ng/mL and the Tmax worked out at 30 min. In data set [1] (setting [5]), the area under the curve AUC(0-inf) was determined as 6490 ng·h/mL, the AUC(0-t) came to 6070 ng·h/mL, the Vd came out at 0.0967 L/kg and the clearance turned out to be 2.57 mL/min/kg. In addition, the bioavailability in data set [1] (mouse, in vivo, ip, 5 mg/kg) came to 99%.
On to `CC[C@H](C)[C@@H]1NC(=O)[C@H](CC(=O)O)NC(=O)[C@@H](NC(=O)[C@H](CC(N)=O)NC(=O)[C@@H]2CCCN2C(=O)[C@H](CCC(=O)O)NC(=O)[C@@H](NC(=O)CCC(=O)NCCCOCCOCCOCCCNC(=O)CCCC[C@@H]2SC[C@@H]3NC(=O)N[C@@H]32)C(C)C)CSSC[C@@H](C(=O)N[C@@H](Cc2ccccc2)C(=O)N[C@@H](CCC(=O)O)C(=O)N[C@@H](CCCNC(=N)N)C(=O)N[C@@H](CC(C)C)C(=O)N[C@@H](CCCCn2cc(C[C@@H](N)C(=O)N[C@H](CC(C)C)C(=O)N[C@H](Cc3ccccc3)C(=O)N[C@H](CCCNC(=N)N)C(=O)N[C@H](CCC(=O)O)C(=O)N[C@H](Cc3c[nH]c4ccccc34)C(N)=O)nn2)C(=O)O)NC(=O)[C@H](CCC(=O)O)NC(=O)[C@H](Cc2c[nH]c3ccccc23)NC(=O)[C@H](CCC(=O)O)NC(=O)[C@H](Cc2c[nH]c3ccccc23)NC(=O)[C@H](CCSC)NC(=O)[C@H](C(C)C)NC(=O)[C@H](Cc2c[nH]cn2)NC1=O` [Bi‐LV] (I: {X1-Suc}-VEPNCDIHVMWEWECFERL[Lys(N3)]-OH / II: H-[dPra][dL][dF][dR][dE][dW]-NH2; disulfide I:5-I:15; triazole I:20-II:1), for which the “resistance to metabolic degradation by mouse liver microsomes (in words)” value in data set [2] was “high resistance to metabolic degradation”. Also, in the data set “in vivo” (ip, 5 mg/kg), the area under the curve AUC(0-inf) came to 2420 ng·h/mL, the area under the curve AUC(0-t) was 2170 ng·h/mL, the peak level (Cmax) was 3210 ng/mL and the time of peak concentration (Tmax) came out at 10.2 min. Moreover, the half-life in “in vivo” (ip, 5 mg/kg) turned out to be 154 min. In addition, in “in vivo” (iv, 1 mg/kg), the total exposure AUC(0-inf) turned out to be 1110 ng·h/mL, the area under the curve AUC(0-t) worked out at 1050 ng·h/mL, the Vd turned out to be 0.16 L/kg and the clearance was determined as 15 mL/min/kg. In addition, in “in vivo” (iv, 1 mg/kg), the half-life came out at 7 min. In data set [3], this compound yielded a bioavailability of 41%.

For orientation: AUC(0-inf) means the area under the concentration-time curve extrapolated to infinity. Low readings indicate low exposure, high ones high exposure. Usually AUC(0-t) stands for the area under the concentration-time curve up to a stated or last time point. In general, Cmax refers to the peak of the concentration-time curve. As usually defined, the Tmax is the time at which the peak concentration occurs. The bioavailability is the share of a dose that reaches the circulation, judged against a reference dose that is usually intravenous. A word on the half-life: it is the time in which the quantity being followed falls by half. Low values mean fast loss, high ones slow loss.
